Consider 2 molecules from US12415819B2, “Cu- and Ni-catalyzed decarboxylative borylation reactions” (The Scripps Research Institute, priority 2017, dated 2025).

For series [1], the target named is elastase in CF patient sputum (Homo sapiens (Human), UniProt P08246). Put plainly: Elastase inhibition assay in CF patient sputum. The series is classed as biochemical. Particulars: for IC50 / LipE: CF sputum; for inhibitory activity in patient sputum versus purified HNE (in words): sputum samples of CF and COPD patients. The protocol:
Serially diluted compounds in DMSO were dispensed into a 384-well black opaque plate by Echo dispenser. 0.1 μg/mL human neutrophil elastase (EPC, Catalog# SE563, Owensville, Ms.) or human sputum diluted with assay buffer (100 mM HEPES, 500 mM NaCl, 0.02% Tween 20) was added into the 384-well plate, and was incubated with different compounds at different concentrations for 30 minutes at room temperature. The final concentration of DMSO in the reaction was 0.1%. Elastase substrate MeOSuc-AAPV-AMC (Bachem, Catalog #I-1270, Torrance, CA) of 100 μM final concentration was then added into the reaction system just before enzyme kinetics were read on PheraSTAR plate reader at excitation of 380 nm and emission of 460 nm with a 3-minutes interval for 30 minutes in total. Slope of fluorescence intensity vs. time representing the Vmax of enzyme activity was calculated with MARS software. % relative inhibition was calculated as: […]
IC50 was calculated based on the % relative inhibition curve using log(agonist) vs. response (three parameters) method with Prism software. All experiments were performed in triplicate for at least three independent times.
Human sputum was purchased from Discovery Life Sciences (Los Osos, CA). Human sputum was diluted 1:10 in volume with assay buffer (100 mM HEPES, 500 mM NaCl, 0.02% Tween 20) followed by vigorous vortexing. The 1:10 diluted human sputum was further diluted into 1:30, 1:90, 1:270, 1:810, and 1:2430. The elastase concentration was determined by elastase inhibition assay as described above. Specifically, a series of standards of human neutrophil elastase (starting at 2 μg/mL and further diluted 1:2 in volume) were prepared in the assay buffer. The samples and standards were plated in a 384-well black solid bottom plate; the substrate MeOSuc-AAPV-AMC of 100 μM final concentration was then added into the reaction system just before enzyme kinetics were read on PheraSTAR plate reader as mentioned above. The slope of enzymatic kinetic reading was calculated by MARS software. The elastase levels of the human sputum were calculated based on the standard curve.

A short description of the next series: Plasma Stability Assay. The series is classed as in vitro ADME, mouse. Particulars: for % Remaining (mean): CD-1 Mouse Plasma; for portion intact in CD-1 mouse plasma: over 2 hours; for CD-1 Mouse Plasma % Remaining @ 2 hr: summary table. The procedure:
Propantheline was used as the reference compound in this assay; all stock solutions were stored at −40° C. before use. • 2) Test system: CD-1 Mouse Plasma from a minimum of 20 male individuals were obtained from BioreclamationlVT (Catalog #: […]2-M; Batch #: MSE244515). EDTA-K2 was used as the anticoagulant. Procedure:
The frozen plasma was thawed in a water bath at 37° C. prior to the experiments. The plasma was centrifuged at 4000 rpm for 5 min and the clots were removed if necessary.
The pH was adjusted to 7.4±0.1 as necessary. An intermediate solution (1 mM) was prepared and a 100 μM dosing solution was prepared by diluting 10 μL of the intermediate solution with 90 μL 45% MeOH/H2O. Duplicate of test samples were made by mixing 98 μL of blank plasma with 2 μL of dosing solution (100 μM) to achieve the final concentration of 2 μM. Samples were incubated at 37° C. At each time point (0, 10, 30, 60, and 120 min), 400 μL of stop solution (consisting of 200 ng/mL tolbutamide and 20 ng/mL buspirone in 50% MeOH/CH3CN) was added to precipitate protein under thorough mixing. The sample plates were then centrifuged at 4,000 rpm for 10 min. An aliquot of supernatant (100 μL) was transferred from each well and mixed with 200 of μL ultrapure water. The samples were shaken at 800 rpm for about 10 min before LC-MS/MS analysis.
Data analysis: The % remaining of test compound after incubation in plasma was calculated using following equation: Remaining=100×(PAR at Tn/PAR at T0) where PAR is the peak area ratio of analyte versus internal standard (IS) and The appointed incubation time points are T0 (0 min), Tn (n=0, 10, 30, 60, 120 min).
LC-MS/MS condition: Each compound was analyzed by LC/MS using an ACE 5-phenyl 50×2.1 mm column (Part No. ACE-125-0502) with 0.1% formic acid in water and 0.1% formic acid in acetonitrile as the mobile phases. Tobultamide was used as the internal standard. Data collected were processed by Analyst 1.6.2 software and MultiQuant 3.0.2 software.

The target of series [2] is human neutrophil elastase (Homo sapiens (Human), UniProt P08246). Put plainly: Elastase inhibition assay, purified human neutrophil elastase. The series is classed as biochemical. The following applies: purified HNE.
The next series in a line: in vitro. Particulars: human. The procedure: Digoxin, fenoterol, and propranol were used as standards respectively. Transport Method:
The transport buffer used in the study was HBSS with 10 mM HEPES at pH 7.40±0.05. Compounds were tested at 2 μM bi-directionally in duplicates. Digoxin was tested at […] bi-directionally in a duplicate, while fenoterol and propranolol were tested at 2 μM in A(apical) to B (basolateral) direction in duplicates. The final DMSO concentration was adjusted to less than 1%. The plate was incubated for 2 hours in a CO2 incubator at 37±1° C., with 5% CO2 at saturated humidity without shaking. All samples, after mixing with acetonitrile containing internal standard, were centrifuged at 4000 rpm for 20 min. Subsequently,100 μL supernatant solution was diluted with 100 μL distilled water for LC/MS/MS analysis. Concentrations of test and control compounds in starting solution, donor solution, and receiver solution were quantified by LC/MS/MS methodologies, using peak area ratio of analyte/internal standard. After transport assay, lucifer yellow rejection assay was applied to determine the Caco-2 cell monolayer integrity.
Data analysis: The apparent permeability coefficient Papp (cm/s) was calculated using the equation:
The efflux ratio was calculated using the equation: Efflux ratio=Papp(BA)/Papp(AB)
Percent recovery was calculated using the equation: % Recovery=100×[(Vr·Cr)+(Vd·Cd)]/(Vd·C0) Where Vd is the volume in the donor chambers (0.075 mL on the apical side, 0.25 mL on the basolateral side); Cd and Cr are the final concentrations of transport compound in donor and receiver chambers, respectively.

elastase in CF patient sputum, sequence (P08246 30-267): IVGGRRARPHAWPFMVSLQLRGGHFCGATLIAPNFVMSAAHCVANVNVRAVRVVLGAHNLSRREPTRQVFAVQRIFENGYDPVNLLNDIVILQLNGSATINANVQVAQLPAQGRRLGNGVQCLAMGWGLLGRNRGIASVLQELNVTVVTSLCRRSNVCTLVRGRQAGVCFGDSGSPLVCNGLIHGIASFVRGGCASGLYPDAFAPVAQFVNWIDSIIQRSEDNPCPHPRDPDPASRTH
human neutrophil elastase, sequence (P08246 30-247): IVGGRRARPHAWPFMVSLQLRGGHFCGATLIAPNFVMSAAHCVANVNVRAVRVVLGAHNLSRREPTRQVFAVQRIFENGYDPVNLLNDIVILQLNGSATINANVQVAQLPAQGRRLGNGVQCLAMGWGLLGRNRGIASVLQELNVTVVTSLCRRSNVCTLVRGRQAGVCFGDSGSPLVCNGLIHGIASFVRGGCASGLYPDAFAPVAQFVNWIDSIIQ

`CC(C)[C@H](NC(=O)[C@@H]1CCCN1C(=O)[C@@H](NC(=O)c1ccc(C(=O)NCC(=O)O)cc1)C(C)C)B(O)O` [Compound 52, (4-(((2S)-1-((2S)-2-((1-borono-2-methylpropyl)carbamoyl)pyrrolidin-1-yl)-3-methyl-1-oxobutan-2-yl)carbamoyl)benzoyl)glycine]: the IC50 in series [1] was found to be 0.043 ± 0.002 nM. This molecule also gave a LipE in series [1] of 9.62. In addition, in series [1], the “inhibitory activity in patient sputum versus purified HNE (in words)” value is listed as “retained much of their inhibitory activities”. In addition, the “% Remaining (mean)” value in “Plasma Stability Assay” (0 min, 2 μM, 37° C.) is 100.0%; in the series “Plasma Stability Assay” (10 min), 116.1%; in “Plasma Stability Assay” (30 min), 104.8%; in the series “Plasma Stability Assay” (60 min), 96.4%; in “Plasma Stability Assay” (120 min) it was 79.2%. Further, in the series “Plasma Stability Assay”, the “portion intact in CD-1 mouse plasma” value is 79%. For the same molecule, in the series “Plasma Stability Assay”, the “CD-1 Mouse Plasma % Remaining @ 2 hr” value is reported as 79.2%. In series [2], this molecule showed a Ki of 0.0037 nM.
With `CC(C)[C@H](NC(=O)[C@@H]1CCCN1C(=O)[C@@H](NC(=O)c1ccc(C(=O)NS(=O)(=O)c2ccc(Cl)cc2)cc1)C(C)C)B(O)O` [Compound 51, (1-((S)-1-((4-(((4-chlorophenyl)sulfonyl)carbamoyl)benzoyl)-L-valyl)pyrrolidine-2-carboxamido)-2-methylpropyl)boronic acid], in series [1], half-maximal inhibition (IC50) was put at 0.096 ± 0.002 nM, the LipE is 6.83 and the “inhibitory activity in patient sputum versus purified HNE (in words)” value is “retained much of their inhibitory activities”. For the same molecule, in “Plasma Stability Assay” (0 min, 2 μM, 37° C.), the “% Remaining (mean)” value was 100.0%. For the same molecule, the “% Remaining (mean)” value in “Plasma Stability Assay” (10 min) was 90.0%. In addition, the “% Remaining (mean)” value in the series “Plasma Stability Assay” (30 min) was found to be 79.4%. The “% Remaining (mean)” value in the series “Plasma Stability Assay” (60 min) was 84.1%. In addition, in “Plasma Stability Assay” (120 min), the “% Remaining (mean)” value worked out at 90.3%. Also, in “Plasma Stability Assay”, the “portion intact in CD-1 mouse plasma” value came to 90% and the “CD-1 Mouse Plasma % Remaining @ 2 hr” value was determined as 90.3%. Moreover, in “in vitro” (Caco-2, pH 7.4), the Papp A→B at 120 min, 2 μM is less than 0.16 ×10⁻⁶ cm/s; the Papp A→B at 2 h, 2 μM is less than 0.08 ×10⁻⁶ cm/s; the Papp B→A at 120 min, 2 μM turned out to be 0.61 ×10⁻⁶ cm/s; the basolateral-to-apical permeability (Papp B→A) at 2 h, 2 μM was less than 0.12 ×10⁻⁶ cm/s. Also, the efflux ratio at 2 h, 2 μM in the series “in vitro” (Caco-2, pH 7.4) is greater than 3.91. The recovery at 2 h, 2 μM in “in vitro” (Caco-2, pH 7.4, Mean Recovery % A to B) is less than 88.2%. The recovery at 2 h, 2 μM in “in vitro” (Caco-2, pH 7.4, Mean Recovery % B to A) stood at 99.1%. The inhibition constant (Ki) in series [2] was found to be 0.034 nM.
